Experimental data: ChEMBL document CHEMBL3399965, “Application of cultured human mast cells (CHMC) for the design and structure-activity relationship of IgE-mediated mast cell activation inhibitors” (Bioorg Med Chem Lett, 2015)
The source made the active and inactive calls. The rule behind the calls is not given here.

How the values were obtained:
[1] = target: T1, Tyrosine-protein kinase SYK (Homo sapiens, UniProt P43405); experiment: Inhibition of SYK in human mast cell cultures assessed as reduction in IgE-induced FCepsilonR1 mediated degranulation by tryptase release assay
[2] = target: T1, Tyrosine-protein kinase SYK; experiment: Inhibition of SYK in human mast cell cultures assessed as reduction in ionomycin-induced calcium mobilization mediated degranulation by tryptase release assay

Row | Compound | EC50 [1] [nM] | inhibition [2] | EC50 [2] [nM] | inhibition [1]
1 | COc1cccc(Nc2ncc(F)c(Nc3cccc(OC)c3)n2)c1 | 1730 | inactive |  | 
2 | CCOc1ccc(Nc2nc(Nc3cccc(OCC(=O)NC)c3)ncc2F)cc1 | 1100 | inactive |  | 
3 | COC(=O)COc1ccc(Nc2nc(Nc3ccc(OCC(N)=O)cc3)ncc2F)cc1 | 940 |  | 10000 | 
4 | Fc1cnc(Nc2ccc(N3CCOCC3)cc2)nc1Nc1ccc(N2CCOCC2)cc1 | 4140 | inactive |  | 
5 | CC(C)(CO)c1ccc(Nc2nc(Nc3cccc(OCCO)c3)ncc2F)cc1 | 280 | inactive |  | 
6 | CCOc1ccc(Nc2ncc(C)c(Nc3ccc(OCC)cc3)n2)cc1 |  | inactive |  | inactive
7 | N#CCOc1ccc(Nc2ncc(F)c(Nc3ccc(OCC#N)cc3)n2)cc1 | 370 | inactive |  | 
8 | NC(=O)COc1ccc(Nc2nc(Nc3cccc(O)c3)ncc2F)cc1 | 1550 |  | 10000 | 
9 | OCc1cccc(Nc2ncc(F)c(Nc3cccc(CO)c3)n2)c1 | 2800 | inactive |  | 
10 | N#Cc1cnc(Nc2cccc(O)c2)nc1Nc1cccc(O)c1 | 440 | inactive |  | 
11 | CCOc1ccc(Nc2ncc(F)c(Nc3ccc(OCC)cc3)n2)cc1 |  | inactive |  | 
12 | COC(=O)COc1ccc(Nc2ncc(F)c(Nc3ccc(OCC(N)=O)cc3)n2)cc1 | 430 |  | 2480 | 
13 | CCOc1cccc(Nc2ncc(F)c(Nc3cccc(OCC)c3)n2)c1 | 3100 | inactive |  | 
14 | OCCOc1cccc(Nc2nc(Nc3cccc(O)c3)ncc2F)c1 | 670 | inactive |  | 
15 | CNC(=O)COc1cccc(Nc2ncc(F)c(Nc3ccc(C(F)(F)F)cc3)n2)c1 | 210 | inactive |  | 
16 | COC(=O)COc1ccc(Nc2ncc(F)c(Nc3ccc(OCC(=O)OC)cc3)n2)cc1 | 380 |  | 1700 | 
17 | COc1ccc(Nc2ncc(F)c(Nc3ccc(OC)cc3)n2)cc1 | 1430 | inactive |  | 
18 | COCCOc1cccc(Nc2ncc(F)c(Nc3cccc(OCCOC)c3)n2)c1 | 4150 | inactive |  | 
19 | N#CCOc1ccc(Nc2ncc(F)c(Nc3cccc(O)c3)n2)cc1 |  |  | 10000 | 
20 | Oc1cccc(Nc2ccnc(Nc3cccc(O)c3)n2)c1 | 500 | inactive |  | 
21 | O=C(O)COc1ccc(Nc2ncc(F)c(Nc3ccc(OCC(=O)O)cc3)n2)cc1 |  | inactive |  | inactive
22 | Fc1cnc(Nc2cccc(OC(F)(F)F)c2)nc1Nc1cccc(OC(F)(F)F)c1 | 5080 | inactive |  | 
23 | Oc1cccc(Nc2ncc(-c3ccccc3)c(Nc3cccc(O)c3)n2)c1 | 2900 | inactive |  | 
24 | Cn1nnnc1COc1ccc(Nc2ncc(F)c(Nc3ccc(OCc4nnnn4C)cc3)n2)cc1 | 760 | inactive |  | 

Row | Compound | EC50 [1] [nM] | inhibition [2] | EC50 [2] [nM] | inhibition [1]
25 | CCOC(=O)CNc1cccc(Nc2ncc(F)c(Nc3cccc(O)c3)n2)c1 | 330 | inactive |  | 
26 | CNC(=O)COc1cccc(Nc2ncc(F)c(Nc3ccc(N4CCOCC4)cc3)n2)c1 | 1290 | inactive |  | 
27 | CNC(=O)CNc1cccc(Nc2ncc(F)c(Nc3cccc(O)c3)n2)c1 |  | inactive |  | 
28 | NC(=O)COc1ccc(Nc2ncc(F)c(Nc3cccc(O)c3)n2)cc1 | 530 |  | 10000 | 
29 | Nc1ccc(Nc2ncc(F)c(Nc3ccc(N)cc3)n2)cc1 | 4250 | inactive |  | 
30 | OCCOc1cccc(Nc2ncc(F)c(Nc3cccc(OCCO)c3)n2)c1 | 930 | inactive |  | 
31 | Oc1cccc(Nc2ncc(F)c(Nc3cccc(O)c3)n2)c1 |  | inactive |  | 
32 | CCOc1ccc(Nc2ccnc(Nc3ccc(OCC)cc3)n2)cc1 | 3380 | inactive |  | 
33 | CC(C)Oc1ccc(Nc2ncc(F)c(Nc3ccc(OC(C)C)cc3)n2)cc1 | 2200 | inactive |  | 
34 | Oc1cccc(Nc2cc(-c3ccccc3)nc(Nc3cccc(O)c3)n2)c1 | 5800 | inactive |  | 
35 | CNC(=O)COc1cccc(Nc2ncc(F)c(Nc3ccc(OC(F)(F)F)cc3)n2)c1 | 400 | inactive |  | 
36 | Oc1cccc(Nc2ncc(C(F)(F)F)c(Nc3cccc(O)c3)n2)c1 | 270 | inactive |  | 
37 | CNC(=O)COc1cccc(Nc2ncc(F)c(Nc3ccc(C(C)(C)C)cc3)n2)c1 | 430 |  | 10000 | 
38 | CCOc1ccc(Nc2cc(Cl)nc(Nc3ccc(OCC)cc3)n2)cc1 |  | inactive |  | inactive
39 | Fc1cnc(Nc2ccc(OCc3nnn[nH]3)cc2)nc1Nc1ccc(OCc2nnn[nH]2)cc1 |  | inactive |  | inactive
40 | Fc1cnc(Nc2ccc(C(F)(F)F)cc2)nc1Nc1ccc(C(F)(F)F)cc1 |  | inactive |  | inactive
41 | Oc1cccc(Nc2ncc(Br)c(Nc3cccc(O)c3)n2)c1 | 230 | inactive |  | 
42 | Cc1cnc(Nc2cccc(O)c2)nc1Nc1cccc(O)c1 | 900 | inactive |  | 
43 | Fc1cnc(Nc2cccc(Cl)c2)nc1Nc1cccc(Cl)c1 | 5810 | inactive |  | 
44 | N#Cc1ccc(Nc2ncc(F)c(Nc3ccc(C#N)cc3)n2)cc1 | 9830 | inactive |  | 
45 | N#Cc1cccc(Nc2ncc(F)c(Nc3cccc(C#N)c3)n2)c1 | 950 | inactive |  | 
46 | NC(=O)COc1ccc(Nc2ncc(F)c(Nc3ccc(OCC(N)=O)cc3)n2)cc1 |  | inactive |  | inactive
47 | Oc1ccc(Nc2ncc(F)c(Nc3ccc(O)cc3)n2)cc1 | 3400 | inactive |  | 
